Assay results: patent US20220226484A1, “THERAPEUTIC PEPTIDES” (COHBAR, INC., priority 2019, published 2022)
Non-standard residues stand in square brackets, D forms with d. Primed or numbered codes have the meaning given here. No end group written: not given here. PEG12′ = not defined here

Assays:
[1] = system: bleomycin-induced lung fibrosis in male C57BL/6 mice; test: Therapeutic mouse model of idiopathic pulmonary fibrosis (bleomycin); type: in vivo; conditions: peptide 5 mg/kg/day intraperitoneal, nintedanib 60 mg/kg/day PO
Source text: The effect of the peptides on the progression of established lung fibrosis can be assessed by monitoring lung fibrosis, lung weight, inflammatory cells in bronchoalveolar lavage fluid (BALF), soluble collagen in BALF, and body weight change in a therapeutic mouse model of idiopathic pulmonary fibrosis. Lung fibrosis was induced in lungs of male C57BL/6 mice between the ages of 6 to 8 weeks by nasophayngeal administration of bleomycin (1.5 U/kg using bleomycin clinical formulation diluted in PBS). A control group of animals were administered saline by the nasopharyngeal route (no-bleomycin control group). After one week, bleomycin-treated animals were randomized to treatment groups (N=10 per group) by body weight and treated daily with vehicle control, nintedanib positive control (60 mg/kg/day PO) or peptide (5 mg/kg/day by intraperitoneal injection). After 14 days of treatment (Day 21), lungs were removed and weighed. The post-caval lobe was separated and snap frozen. The lungs were flushed with Hanks Buffer and bronchoalveolar lavage fluid (BALF) was harvested from each animal. Total BALF leukocyte were counted. Slides were prepared from the remaining BALF leukocytes, fixed and stained with May Geimsa stain and the differential counts were recorded manually. BALF was evaluated for soluble collagen using a Sircol assay. Lungs were fixed in 10% neutral buffered formalin (NBF) for histopathological analysis. Fibrosis was assessed by histopathological analysis of H&E stained mouse lungs using an Ashcroft scoring system.

[2] = system: DSS-induced colitis in female C57BL/6NTac mice; test: DSS-induced colitis mouse model of inflammatory bowel disease; type: in vivo; conditions: 3% DSS 8 days; peptides 10 mg/kg/day intraperitoneal; CsA 80 mg/kg/day oral; AUC over 8 days
Description: The effect of the peptides on inflammatory disease can be assessed by monitoring fecal blood, stool consistency, and body weight loss in a DSS-induced colitis mouse model. Colitis was induced in female C57BL/6NTac mice (9-11 weeks old) by continuous ad libitum oral administration of dextran sodium sulfate (DSS) 3% in sterile drinking water for 8 days. Control (No DSS) mice received sterile water instead of DSS solution. Peptides were administered intraperitoneally once daily at 10 mg/kg/day for 8 days in combination with oral DSS. […] Daily assessments included body weight loss score, fecal blood score, stool consistency score, and composite disease activity index (DAI) score, based on the first three parameters combined. Scores recorded on each day over 8 days were used to calculate area under the curve (AUC) values for each endpoint in individual animals.

[3] = system: 3T3-L1 Mouse Adipocytes; test: Insulin-dependent effect on free fatty acid levels in cultured mouse adipocytes; type: cell-based; conditions: for Free Fatty Acid Levels, MEAN % ISO, +Insulin: peptide 10 μM + insulin 0.25 nM, percent of isoproterenol (0.1 nM)+insulin (0.25 nM); for Free Fatty Acid Levels, MEAN % ISO, +Insulin / Free Fatty Acid Levels, MEAN % ISO, −Insulin: 3 hours; for Free Fatty Acid Levels, MEAN % ISO, −Insulin: peptide 10 μM alone, percent of isoproterenol (0.1 nM) treated control cells
Description: The effect of the peptides on fatty acid metabolism was assessed in the absence and presence of insulin using an assay of free fatty acid levels in cultured cells such as mouse adipocytes. Peptides were initially prepared as 10 mM stock in DMSO and used at a final concentration of 10 μM (0.1% DMSO). […] Insulin (0.25 nM) was used as a partial inhibitor and insulin (10 nM) was used as a potent inhibitor of isoproterenol stimulated fatty acid production. Mouse 3T3-L1 cells purchased from ZenBio (Research Triangle Park, N.C.) were seeded at 3,000 cells per well on 96-well plates in Pre-Adipocyte Medium (Zen-Bio) and grown to confluence at 37° C. in a humidified atmosphere of 5% CO2/95% air. Two days after confluence, cells were placed in Adipocyte Differentiation Medium (Zen-Bio) and cultured for three additional days at 37° C. in a humidified atmosphere of 5% CO2/95% air. The culture medium was then partially replaced with Adipocyte Maintenance Medium (Zen-Bio) and the cells maintained at 37° C. in a humidified atmosphere of 5% CO2/95% air with partial medium replacement every other day. At 12 day of differentiation, 96-well cultures were transferred to Adipocyte Maintenance Medium without insulin and placed at 37° C. in a humidified atmosphere of 5% CO2/95% air for two days. Following this incubation period, the medium was removed from 14 day differentiated cultures and replaced with Assay Buffer (Zen-Bio) containing peptides (10 μM), insulin (0.25 nM or 10 nM), isoproterenol (0.1 nM) as appropriate. […] isoproterenol was added to all wells except untreated controls. Insulin at 0.1 nM and 10 nM was added to control wells. Peptides (10 μM) in the absence or presence of insulin (0.25 nM) were added to test wells. Cells in the presence of compounds were placed at 37° C. in a humidified atmosphere of 5% CO2/95% air for 3 hours. At the end of the final 3 h incubation, conditioned assay buffer was removed from each well and place in a fresh 96-well plate for quantitation of free fatty acid content. Free fatty acid concentrations in the assay buffer samples were determined using a Free Fatty Acid Assay kit (Zen-Bio) according to the manufacturer's instructions using a Cytation 3 plate reader at 540 nm (BioTek, Winooski, VD. Absorbance values were corrected for untreated background and expressed as a percent of isoproterenol (0.1 nM) treated control cells for peptides alone or isoproterenol (0.1 nM)+insulin (0.25 nM) for peptides in presence of insulin (0.25 nM). Treatment with isoproterenol […] alone was used as the free fatty acid level stimulatory control. The relative standard deviation of the isoproterenol control was <10%. […] Free fatty acid levels for insulin (10 nM) treatment were <5% of the isoproterenol control value. Free fatty acid levels for insulin (0.25 nM) treatment were 60-80% of the isoproterenol control value.

[4] = system: H4IIE Rat Hepatoma Cells; test: Insulin-dependent effect on glucose production by cultured rat liver cells; type: cell-based; conditions: for Glucose Levels, MEAN % Control, +Insulin: peptide 10 μM + insulin 800 pM, percent of insulin (800 pM); for Glucose Levels, MEAN % Control, +Insulin / Glucose Levels, MEAN % Control, −Insulin: 24 hour; for Glucose Levels, MEAN % Control, −Insulin: peptide 10 μM alone, percent of untreated control cells
Description: The effect of the peptides on glucose production was assessed in the absence and presence of insulin using an assay of glucose levels in cultured cells such as rat hepatocytes. Peptides were initially prepared as 10 mM stock in DMSO and used at a final concentration of 10 μM (0.1% DMSO). Insulin (800 pM) was used as a partial inhibitor of glucose production. H4-IIE cells purchased from ATCC (Manassas, Va.) were seeded at 100,000 cells/well in standard medium (DMEM/high glucose+10% FBS+1× Glutamax+antibiotics) on 96-well plates and allowed to adhere overnight at 37° C. in a humidified atmosphere of 5% CO2/95% air. Approximately 24 h after seeding, the medium was removed, cells rinsed with glucose free DMEM, and Glucose Production Medium (glucose free DMEM+2 mM sodium pyruvate+10 mM sodium lactate) was added. The cultures were placed at 37° C. in a humidified atmosphere of 5% CO2/95% air overnight. The next morning, the medium was removed and fresh Glucose Production Medium containing compounds was added. Insulin at 800 pM was added to control wells. Peptides (10 μM) in the absence or presence of insulin (800 pM) were added to test wells. Cells in the presence of compounds were placed at 37° C. in a humidified atmosphere of 5% CO2/95% air overnight. After 24 hour incubation, conditioned medium from each well was transferred to a fresh 96-well plate for quantitation of glucose content. Quantitation of glucose levels was determined using an Amplex Red Glucose Assay kit (Abacm; Cambridge, Mass.) according to the manufacturer's instructions using a Cytation 3 plate reader at 570 nm (BioTek, Winooski, Vt.). Absorbance values were expressed as a percent of untreated control cells (maximum glucose production) for peptide alone samples or insulin (800 pM) for peptides in the presence of insulin (800 pM. Glucose levels for insulin (800 pM) treatment were ˜80-90% of the untreated control values. The results are reported in Table 15.

[5] = system: 3T3-L1 Mouse Adipocytes; test: Free fatty acid levels in cultured mouse adipocytes; type: cell-based; conditions: insulin 100 nM, 1 nM isoproterenol
Description: The effect of the peptides on fatty acid metabolism can be assessed using an assay of free fatty acid levels in cultured cells such as mouse adipocytes. Peptides were initially prepared as 10 mM stock in DMSO and used at a final concentration of 10 μM (0.1% DMSO). […] Mouse 3T3-L1 cells purchased from ZenBio were seeded at 3,000 cells per well in 96-well plates in Pre-adipocyte Medium (Zen-Bio) and grown to confluence at 37° C. in a humidified atmosphere of 5% CO2/95% air. Two days after confluence, cells were placed in Adipocyte Differentiation Medium (Zen-Bio) and cultured for three additional days at 37° C. in a humidified atmosphere of 5% CO2/95% air. The culture media was then replaced with Adipocyte Maintenance Medium (Zen-Bio) and the cells maintained for an additional 9-12 days at 37° C. in a humidified atmosphere of 5% CO2/95% air with partial medium replacement every other day. Following 12-15 days of differentiation, test peptides were added at a final concentration of 10 μM in 0.1% DMSO and incubated for 20-22 hours in Adipocyte Maintenance Medium at 37° C. in a humidified atmosphere of 5% CO2/95% air. After 20-22 hours, 1 nM isoproterenol was added to all wells except untreated controls and test peptides were replenished. Insulin at 100 nM was added to control wells. Cells were incubated for 3 hours in Assay Buffer (Zen-Bio) at 37° C. in a humidified atmosphere of 5% CO2/95% air. Free fatty acid concentrations in the media were determined using a Free Fatty Acid Assay kit (Zen-Bio) according to the manufacturer's instructions using a Cytation 3 plate reader at 540 nm (BioTek, Winooski, Vt.). Absorbance values were corrected for untreated background and expressed relative to isoproterenol treated cells. Treatment with isoproterenol (1 nM) alone was used as the free fatty acid level stimulatory control. The relative standard deviation of the isoproterenol control was <10%. […] Free fatty acid levels for insulin (100 nM) treatment were <5% of the isoproterenol control value.
The effect of the peptides on fatty acid metabolism was assessed using an assay of free fatty acid levels in cultured cells such as mouse adipocytes. Peptides were initially prepared as 10 mM stock in DMSO and used at a final concentration of 10 μM (0.1% DMSO). […] Mouse 3T3-L1 cells purchased from ZenBio were seeded at 3,000 cells per well in 96-well plates in Pre-adipocyte Medium (Zen-Bio) and grown to confluence at 37° C. in a humidified atmosphere of 5% CO2/95% air. Two days after confluence, cells were placed in Adipocyte Differentiation Medium (Zen-Bio) and cultured for three additional days at 37° C. in a humidified atmosphere of 5% CO2/95% air. The culture media was then replaced with Adipocyte Maintenance Medium (Zen-Bio) and the cells maintained for an additional 9-12 days at 37° C. in a humidified atmosphere of 5% CO2/95% air with partial medium replacement every other day. Following 12-15 days of differentiation, test peptides were added at a final concentration of 10 μM in 0.1% DMSO and incubated for 20-22 hours in Adipocyte Maintenance Medium at 37° C. in a humidified atmosphere of 5% CO2/95% air. After 20-22 hours, 1 nM isoproterenol was added to all wells except untreated controls and test peptides were replenished. Insulin at 100 nM was added to control wells. Cells were incubated for 3 hours in Assay Buffer (Zen-Bio) at 37° C. in a humidified atmosphere of 5% CO2/95% air. Free fatty acid concentrations in the media were determined using a Free Fatty Acid Assay kit (Zen-Bio) according to the manufacturer's instructions using a Cytation 3 plate reader at 540 nm (BioTek, Winooski, Vt.). Absorbance values were corrected for untreated background and expressed relative to isoproterenol treated cells. Treatment with isoproterenol (1 nM) alone was used as the free fatty acid level stimulatory control. The relative standard deviation of the isoproterenol control was <10%. […]

COC(=O)c1ccc2c(c1)NC(=O)/C2=C(\Nc1ccc(N(C)C(=O)CN2CCN(C)CC2)cc1)c1ccccc1 [Nintedanib, nintedanib, reference compound]
Mean (SEM) Leukocyte Count in BALF (Percent of Bleomycin Control) ([1]; Day 21, 14 days of treatment): 62.4 (6.08) Percent
Mean (SEM) Lung Weight (Percent of Bleomycin Control) ([1]; Day 21, 14 days of treatment): 75.2 (6.04) Percent
Mean (SEM) Percent Body Weight Change from Baseline ([1]; Day 21, 14 days of treatment): −7.95 (6.09) Percent
Mean (SEM) Collagen Content in BALF (Percent of Bleomycin Control) ([1]; Sircol assay, Day 21): 44.0 (6.48) Percent
Mean (SEM) Ashcroft Score (Percent of Bleomycin Control) ([1]; histopathology, Day 21): 78.70 (9.72) Percent

RVIRACLGVGLLGDL(dA)GK{PEG12} [SEQ ID NO: 29] (RVIRACLGVGLLGDL[dA]GK(PEG12′))
Mean (SEM) Body Weight Loss Score AUC [2]: 2.10 (0.76)
Mean (SEM) Composite Disease Activity Index (DAI) Score AUC [2]: 19.8 (1.99)
Mean (SEM) Fecal Blood Score AUC [2]: 12.8 (1.04)
Mean (SEM) Stool Consistency Score AUC [2]: 5.05 (0.78)

RVIRACLGVGLLGDL(dA)GK{PEG12} [SEQ ID NO: 30] (RVIRACLGVGLLGDL[dA]GK(PEG12′); not fully specified; printed as RVIRACLGVGLLGDL(dA)GK{PEG12}) [possibly the dimer of this chain]
Mean (SEM) Body Weight Loss Score AUC [2]: 0.95 (0.69)
Mean (SEM) Composite Disease Activity Index (DAI) Score AUC [2]: 14.9 (0.86)
Mean (SEM) Fecal Blood Score AUC [2]: 9.30 (0.44)
Mean (SEM) Stool Consistency Score AUC [2]: 4.65 (0.48)

RVIRMCLNNGLNGEL(dA)G (RVIRMCLNNGLNGEL[dA]G) [SEQ ID NO: 22]
Free Fatty Acid Levels, MEAN % ISO, +Insulin [3]: 25.3%
Free Fatty Acid Levels, MEAN % ISO, −Insulin [3]: 93.6%
Glucose Levels, MEAN % Control, +Insulin [4]: 0.5%
Glucose Levels, MEAN % Control, −Insulin [4]: -0.4%

RVIRMCLNVGLEGEL(dA) (RVIRMCLNVGLEGEL[dA]) [SEQ ID NO: 19]
Free Fatty Acid Levels, MEAN % ISO, +Insulin [3]: 24.7%
Free Fatty Acid Levels, MEAN % ISO, −Insulin [3]: 67.1%
Glucose Levels, MEAN % Control, +Insulin [4]: 3.7%
Glucose Levels, MEAN % Control, −Insulin [4]: 12.5%

RVIRMCLNVGLNGE [SEQ ID NO: 21]
Free Fatty Acid Levels, MEAN % ISO, +Insulin [3]: 40.0%
Free Fatty Acid Levels, MEAN % ISO, −Insulin [3]: 102%
Glucose Levels, MEAN % Control, +Insulin [4]: 78.2%
Glucose Levels, MEAN % Control, −Insulin [4]: 102%

insulin: highly potent positive control for decreasing free fatty acid levels; partial inhibitor of glucose production
Free fatty acid levels, % of the isoproterenol control value [5]: < 5%
Free fatty acid levels, % of the isoproterenol control value ([3]; insulin 0.25 nM): 60-80%
Free fatty acid levels, % of the isoproterenol control value ([3]; insulin 10 nM): < 5%
Glucose levels, % of the untreated control values ([4]; insulin 800 pM): 80-90%

{PEG12}KRVIRMCLNVGLLGEL(dA)E ([PEG12′]KRVIRMCLNVGLLGEL[dA]E) [SEQ ID NO: 18]
Free Fatty Acid Levels, MEAN % ISO, +Insulin [3]: 93.6%
Free Fatty Acid Levels, MEAN % ISO, −Insulin [3]: 107%
Glucose Levels, MEAN % Control, +Insulin [4]: 95.4%
Glucose Levels, MEAN % Control, −Insulin [4]: 101%
